Test results from ChEMBL document CHEMBL1137904, “Design, synthesis, and evaluation of oxyanion-hole selective inhibitor substituents for the S1 subsite of factor Xa” (Bioorg Med Chem Lett, 2004).

Experiment: In vitro inhibitory activity towards Coagulation factor X was determined using chromogenic substrate, MeO-COD-CHG-Gly-Arg-pNA

| SMILES | Ki [µM] |
| --- | --- |
| N=C(N)c1ccc(CCN)cc1 | 750 |
| CS(=O)(=O)c1ccc(C(=N)N)cc1 | 1800 |
| CP(=O)(O)c1ccc2c(N)nccc2c1 | > 5000 |
| CN(C)c1ccc(P(C)(=O)O)cc1 | 4100 |
| N=C(N)c1ccccc1 [BENZAMIDINE] | 349 |

Next, values leading:

| Ki [µM] | SMILES |
| --- | --- |
| 197 | N=C(N)c1ccc(N)cc1 |
| 55 | N=C(N)c1ccc(CO)cc1 |
| 607 | N=C(N)c1ccc(CCO)cc1 |
| 429 | N=C(N)c1ccc(CN)cc1 |
| 30 | N=C(N)c1ccc(O)cc1 |
| 193 | CS(=O)(=O)CCc1ccc(C(=N)N)cc1 |
| > 5000 | CS(=O)(=O)Cc1ccc(C(=N)N)cc1 |
